According to patent US9376454B2, “Beta-lactamase inhibitors” (priority 2013, dated 2016):

What was measured:
Format in all cases: biochemical
[1] = molecular target: T1, SHV-5 β-lactamase (Klebsiella pneumoniae, UniProt P0A3M1); assay: β-Lactamase inhibition enzyme assay, SHV-5
T1 construct: made in house; host or cells: E. coli BL21(DE3)
Experimental: (§1) For SHV-5, Kpc-2, p99AmpC and OXA-1 β-lactamases, E. coli BL21(DE3) bacterial cells carrying expression plasmids (expressed as native untagged proteins) for the individual β-lactamases were grown in 1 L of Superbroth (Teknova Inc. Hollister, Calif.) supplemented with 100 μg/ml kanamycin selection and 1×5052 (0.5% glycerol, 0.05% glucose and 0.2% α-lactose) at 35° C. for 18-20 hours. Cells were harvested by centrifugation (4,000×g, 4° C., 20 min), resuspended in 50 ml of 10 mM HEPES pH 7.5 ( 1/20 of the initial volume). The cells were lysed by sonication (5 pulses of 45 seconds) at 45 W on ice. The lysates were clarified by centrifugation at 10,000×g for 40 minutes at 4° C. Samples were diluted 5-fold in 50 mM sodium acetate pH 5.0, stored overnight at 4° C., after which they were centrifuged at 10,000×g for 30 minutes to clarify, and filtered through 0.45 μm filters. The samples were loaded onto a 5 ml Capto S sepharose cation exchange column (GE Healthcare) pre-equilibrated with 50 mM sodium acetate pH 5.0. The column was washed with 5 column volumes of 50 mM sodium acetate pH 5.0 to wash out unbound protein and a linear gradient of NaCl (0 to 500 mM) was used to elute the protein (over 16 CV) from the column. Fractions were assayed for β-lactamase activity using Centa (Calbiochem, Gibbstown, N.J.) or Nitrocefin (EMD Millipore chemicals, Darmstadt, Germany) as a reporter β-lactamase substrate for activity in the isolated fractions. Active fractions were pooled, concentrated and further purified by gel filtration chromatography on a Superdex 75 prep grade gel filtration column (GE Healthcare, Piscataway, N.J.) pre-equilibrated in 50 mM Hepes pH 7.5, 150 mM NaCl. Active fractions were pooled concentrated, quantitated by BCA protein determination (Thermo Scientific, Rockford, Ill.), dialyzed into PBS and frozen at −80° C. in 20% glycerol until use.
(§2) An equal volume of diluted enzyme stock was added, and the plates were incubated at 37° C. for 15 min. Nitrocefin was used as substrate for p99 AmpC, VIM-2 and OXA-1 and dispensed into each well at a final concentration of 100 μM. Absorbance at 486 nm was immediately monitored for 10 min using a Biotek Powerwave XS2 microplate spectrophotometer using the GEN5 softweare package (Biotek Instruments, Winooski Vt.). In an analogous fashion, imipenem was used as substrate for Kpc-2 and Cefotaxime was used for SHV-5, while changes in absorbance upon hydrolysis of the β-lactam ring were monitored at 300 nm and 260 nm respectively in UV-transparent 96-well microtiter assay plates. Maximum rates of hydrolysis were compared to those in control wells (without inhibitors), and percentages of enzyme inhibition were calculated for each concentration of inhibitor. The concentration of inhibitor needed to reduce the initial rate of hydrolysis of substrate by 50% (IC50) was calculated as the residual activity of β-lactamase at 486 nm using GraFit version 7 kinetics software package (Erithacus Software, Surrey, UK).

[2] = molecular target: T2, KPC-2 β-lactamase (Klebsiella pneumoniae, UniProt Q9F663); assay: β-Lactamase inhibition enzyme assay, KPC-2; settings: imipenem as substrate, 300 nm; 15 min at 37° C. with enzyme, PBS pH 7.4; read-out: Class A KPC-2 IC50
T2 construct: made in house; host or cells: E. coli BL21(DE3)
Experimental: as §1, §2

[3] = molecular target: T3, VIM-2 metallo β-lactamase (Pseudomonas aeruginosa, UniProt Q9K2N0); assay: β-Lactamase inhibition enzyme assay, VIM-2; settings: Nitrocefin 100 μM as substrate, 486 nm; 15 min at 37° C. with enzyme, PBS pH 7.4; read-out: Class B VIM-2 IC50
T3 construct: made in house; host or cells: E. coli BL21(DE3)
Experimental: as §1
For Vim-2 metallo β-lactamase, the procedure was identical with the following exceptions, first the protein was not pH adjusted to pH 5 with 50 mM sodium acetate, second, the chromatography step was changed to a 5 ml Q sepharose anion exchange column pre-equilibrated with 50 mM Hepes pH 7.5, and elution of the protein was achieved by a linear gradient of NaCl (0-600 mM). Finally, the VIM-2 purification required a second run (3rd step) on the Q sepharose anion exchange column to achieve acceptable purity (>90%).
as §2

[4] = molecular target: T4, p99 AmpC β-lactamase (Enterobacter cloacae, UniProt P05364); assay: β-Lactamase inhibition enzyme assay, p99 AmpC
T4 construct: made in house; host or cells: E. coli BL21(DE3)
Experimental: as §1, §2

[5] = molecular target: T5, OXA-1 β-lactamase (Escherichia coli, UniProt P13661); assay: β-Lactamase inhibition enzyme assay, OXA-1; settings: Nitrocefin 100 μM as substrate, 486 nm; 15 min at 37° C. with enzyme, PBS pH 7.4; read-out: Class D OXA-1 IC50
T5 construct: made in house; host or cells: E. coli BL21(DE3)
Experimental: as §1, §2

T2 sequence (Q9F663 25-293, looked up): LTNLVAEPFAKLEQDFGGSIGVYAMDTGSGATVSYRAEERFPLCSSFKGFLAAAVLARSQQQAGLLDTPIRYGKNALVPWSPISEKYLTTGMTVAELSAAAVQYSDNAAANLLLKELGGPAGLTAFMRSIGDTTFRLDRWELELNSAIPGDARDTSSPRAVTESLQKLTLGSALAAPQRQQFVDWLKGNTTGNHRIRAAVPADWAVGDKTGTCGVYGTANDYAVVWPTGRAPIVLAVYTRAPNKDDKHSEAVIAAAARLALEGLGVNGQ
T1 sequence (P0A3M1 22-286): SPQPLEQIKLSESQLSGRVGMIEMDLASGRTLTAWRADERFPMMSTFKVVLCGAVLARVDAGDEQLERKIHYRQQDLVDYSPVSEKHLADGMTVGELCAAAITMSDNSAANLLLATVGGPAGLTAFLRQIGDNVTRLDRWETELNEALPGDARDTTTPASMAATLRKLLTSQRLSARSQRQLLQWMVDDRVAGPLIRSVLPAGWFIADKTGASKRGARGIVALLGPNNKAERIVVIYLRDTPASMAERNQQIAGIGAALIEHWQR
T5 sequence (P13661 26-276): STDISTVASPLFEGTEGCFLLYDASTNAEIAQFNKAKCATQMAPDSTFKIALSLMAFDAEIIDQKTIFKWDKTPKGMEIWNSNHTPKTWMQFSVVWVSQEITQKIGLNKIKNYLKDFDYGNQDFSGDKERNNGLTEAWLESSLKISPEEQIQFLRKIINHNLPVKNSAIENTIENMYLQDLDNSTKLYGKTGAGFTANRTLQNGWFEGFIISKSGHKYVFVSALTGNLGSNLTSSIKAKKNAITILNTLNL
T4 sequence (P05364 21-381): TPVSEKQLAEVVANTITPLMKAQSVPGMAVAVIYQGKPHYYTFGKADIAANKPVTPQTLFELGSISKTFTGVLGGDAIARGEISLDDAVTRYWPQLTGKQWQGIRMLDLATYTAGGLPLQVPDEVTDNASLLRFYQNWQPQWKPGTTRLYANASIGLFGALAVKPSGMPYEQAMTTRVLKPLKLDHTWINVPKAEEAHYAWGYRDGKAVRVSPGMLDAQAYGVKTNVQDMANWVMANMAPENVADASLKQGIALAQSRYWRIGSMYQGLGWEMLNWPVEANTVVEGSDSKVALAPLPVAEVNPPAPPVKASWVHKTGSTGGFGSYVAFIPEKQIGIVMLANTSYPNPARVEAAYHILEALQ

| Structure (SMILES) | IC50 [1] [nM] | IC50 [2] [nM] | IC50 [3] [nM] | IC50 [4] [nM] | IC50 [5] [nM] |
| --- | --- | --- | --- | --- | --- |
| O=C(N[C@H]1Cc2cccc(C(=O)O)c2OB1O)c1ccc(O)c(O)c1 [Example 39, (R)-3-(3,4-dihydroxybenzamido)-2-hydroxy-3,4-dihydro-2H-benzo[e][1,2]oxaborinine-8-carboxylic acid] | 100 to 1000 | < 100 | 100 to 1000 | < 100 | < 100 |
| NCCOc1ccc(C(=O)N[C@H]2Cc3cccc(C(=O)O)c3OB2O)cc1O [Example 40, (R)-3-(4-(2-aminoethoxy)-3-hydroxybenzamido)-2-hydroxy-3,4-dihydro-2H-benzo[e][1,2]oxaborinine-8-carboxylic acid] | 100 to 1000 | < 100 | < 100 | < 100 | < 100 |
| NCCn1ccc2ccc(C(=O)N[C@H]3Cc4cccc(C(=O)O)c4OB3O)cc21 [Example 41, (R)-3-{[1-(2-Amino-ethyl)-1H-indole-6-carbonyl]-amino}-2-hydroxy-3,4-dihydro-2H-benzo[e][1,2]oxaborinine-8-carboxylic acid] | < 100 | < 100 | < 100 | < 100 | < 100 |
| NCCn1ccc2c(C(=O)N[C@H]3Cc4cccc(C(=O)O)c4OB3O)cccc21 [Example 42, (R)-3-{[1-(2-Amino-ethyl)-1H-indole-4-carbonyl]-amino}-2-hydroxy-3,4-dihydro-2H-benzo[e][1,2]oxaborinine-8-carboxylic acid] | < 100 | < 100 | 100 to 1000 | < 100 | < 100 |
| Cn1ccc2ccc(C(=O)N[C@H]3Cc4cccc(C(=O)O)c4OB3O)cc21 [Example 43, (R)-2-Hydroxy-3-[(1-methyl-1H-indole-6-carbonyl)-amino]-3,4-dihydro-2H-benzo[e][1,2]oxaborinine-8-carboxylic acid] | 100 to 1000 | < 100 | 100 to 1000 | < 100 | < 100 |
| N=C(N)NCc1cc(CNC(=N)N)cc(C(=O)N[C@H]2Cc3cccc(C(=O)O)c3OB2O)c1 [Example 45, (R)-3-(3,5-bis(guanidinomethyl)benzamido)-2-hydroxy-3,4-dihydro-2H-benzo[e][1,2]oxaborinine-8-carboxylic acid] | 100 to 1000 | < 100 | < 100 | < 100 | < 100 |
| O=C(Cc1ccc2cc[nH]c2c1)N[C@H]1Cc2cccc(C(=O)O)c2OB1O [Example 46, (R)-2-Hydroxy-3-(2-1H-indol-6-yl-acetylamino)-3,4-dihydro-2H-benzo[e][1,2]oxaborinine-8-carboxylic acid] | < 100 | < 100 | < 100 | < 100 | < 100 |
| O=C(N[C@H]1Cc2cccc(C(=O)O)c2OB1O)c1ccc(-c2ncc[nH]2)cc1 [Example 47, (R)-2-Hydroxy-3-[4-(1H-imidazol-2-yl)-benzoylamino]-3,4-dihydro-2H-benzo[e][1,2]oxaborinine-8-carboxylic acid] | < 100 | < 100 | 100 to 1000 | < 100 | < 100 |
| CN1Cc2ccc(CC(=O)N[C@H]3Cc4cccc(C(=O)O)c4OB3O)cc2C1 [Example 48, (R)-2-Hydroxy-3-[2-(2-methyl-2,3-dihydro-1H-isoindol-5-yl)-acetylamino]-3,4-dihydro-2H-benzo[e][1,2]oxaborinine-8-carboxylic acid] | < 100 | < 100 | < 100 | < 100 | < 100 |
| NCCN1Cc2ccc(CC(=O)N[C@H]3Cc4cccc(C(=O)O)c4OB3O)cc2C1 [Example 49, (R)-3-{2-[2-(2-Amino-ethyl)-2,3-dihydro-1H-isoindol-5-yl]-acetylamino}-2-hydroxy-3,4-dihydro-2H-benzo[e][1,2]oxaborinine-8-carboxylic acid] | < 100 | < 100 | 100 to 1000 | < 100 | < 100 |
| O=C(N[C@H]1Cc2cccc(C(=O)O)c2OB1O)c1cnc2c(c1)CNC2 [Example 50, (3R)-3-(6,7-dihydro-5H-pyrrolo[3,4-b]pyridine-3-carbonylamino)-2-hydroxy-3,4-dihydro-1,2-benzoxaborinine-8-carboxylic acid] | < 100 | < 100 | 100 to 1000 | < 100 | < 100 |
| O=C(Cc1ccc2c(c1)CNCC2)N[C@H]1Cc2cccc(C(=O)O)c2OB1O [Example 51, (R)-2-Hydroxy-3-(2-1,2,3,4-tetrahydro-isoquinolin-7-yl-acetylamino)-3,4-dihydro-2H-benzo[e][1,2]oxaborinine-8-carboxylic acid] | < 100 | < 100 | < 100 | < 100 | < 100 |
| O=C(N[C@H]1Cc2cccc(C(=O)O)c2OB1O)c1cnco1 [Example 52, (R)-2-Hydroxy-3-[(oxazole-5-carbonyl)-amino]-3,4-dihydro-2H-benzo[e][1,2]oxaborinine-8-carboxylic acid] | < 100 | < 100 | 100 to 1000 | < 100 | < 100 |
| O=C(O)c1ccccc1C(=O)N[C@H]1Cc2cccc(C(=O)O)c2OB1O [Example 53, (R)-3-(2-carboxybenzamido)-2-hydroxy-3,4-dihydro-2H-benzo[e][1,2]oxaborinine-8-carboxylic acid] | 100 to 1000 | 100 to 1000 | 1000 to 10000 | < 100 | < 100 |
| NCCNC(=O)c1ccccc1C(=O)N[C@H]1Cc2cccc(C(=O)O)c2OB1O [Example 54, (R)-3-(2-(2-aminoethylcarbamoyl)benzamido)-2-hydroxy-3,4-dihydro-2H-benzo[e][1,2]oxaborinine-8-carboxylic acid] | 100 to 1000 | 100 to 1000 | 1000 to 10000 | < 100 | 1000 to 10000 |
| CC(C)NCc1cc(C(=O)N[C@H]2Cc3cccc(C(=O)O)c3OB2O)ccc1CN [Example 55, (R)-3-(4-(aminomethyl)-3-((isopropylamino)methyl)benzamido)-2-hydroxy-3,4-dihydro-2H-benzo[e][1,2]oxaborinine-8-carboxylic acid] | 100 to 1000 | 1000 to 10000 | 100 to 1000 | 100 to 1000 | 100 to 1000 |
| CC(C)NCc1ccc(C(=O)N[C@H]2Cc3cccc(C(=O)O)c3OB2O)cc1CNC(C)C [Example 56, (R)-3-(3,4-bis((isopropylamino)methyl)benzamido)-2-hydroxy-3,4-dihydro-2H-benzo[e][1,2]oxaborinine-8-carboxylic acid] | < 100 | < 100 | 100 to 1000 | < 100 | < 100 |
| NCCNc1ccc(CC(=O)N[C@H]2Cc3cccc(C(=O)O)c3OB2O)cc1 [Example 57, (R)-3-(2-(4-(2-aminoethylamino)phenyl)acetamido)-2-hydroxy-3,4-dihydro-2H-benzo[e][1,2]oxaborinine-8-carboxylic acid] | < 100 | < 100 | 1000 to 10000 | < 100 | < 100 |
